“Also recorded” adds a separate entry of the source.
System: TNF-α production in PBMCs from RA patients
Test: TNF-α level in PBMCs harvested from RA patients
Format: cell-based, human
Conditions: negative control, up to 80 μM

For `O=C(O)c1cnn2c(-c3cccc(C(F)(F)F)c3)ccnc12` [Compound 4a], which “inhibition of TNF-α level in PBMCs from RA patients” value is on record?
The value was “did not show significant inhibition; also recorded: did not show notable inhibitory activity”.

System: TLR8-mediated TNF-α production in THP-1 cells
Test: R848-induced TNF-α production in differentiated THP-1 monocytes
Format: cell-based, human
Conditions: 10 μM

For `O=C(O)c1cnn2c(-c3cccc(C(F)(F)F)c3)ccnc12` [Compound 4a], which “inhibition of R848-induced TNF-α production” value is on record?
The value was “failed to show significant inhibition”.

System: TNF-α production in PBMCs from an AOSD patient
Test: TNF-α level in PBMCs harvested from an AOSD patient
Format: cell-based, human
Conditions: negative control, 40 μM
Protocol: But there is a lack of appropriate rodent models because TLR8 is not functional in either mice or rats. Therefore, the TLR8 inhibitors of this disclosure were tested in human specimens harvested from patients with osteoarthritis (OA), rheumatoid arthritis (RA), and adult onset-Still's disease (AOSD). It is well established that TNF-α and IL-1β are key cytokines in the process of chronic joint inflammation in cartilage. Therefore, synovial cells were isolated from synovial tissue of patients who underwent joint replacement surgery due to severe OA. Previous studies have indicated these pathological tissues express both TLR7 and TLR8 with elevated production of various cytokines, contributing to extensive articular destruction and functional decline.

`O=C(O)c1cnn2c(-c3cccc(C(F)(F)F)c3)ccnc12` [Compound 4a] was tested. Which “inhibitory activity on TNF-α level in PBMCs from an AOSD patient” value did it give?
Its value is “did not show notable inhibitory activity”.

Biological target: T1, human TLR8 (Homo sapiens, UniProt Q9NR97)
T1 construct: expressed in transfected cells; host or cells: HEK-Blue Null1 cells, lentiviral infection
T1 sequence (Q9NR97 27-1041): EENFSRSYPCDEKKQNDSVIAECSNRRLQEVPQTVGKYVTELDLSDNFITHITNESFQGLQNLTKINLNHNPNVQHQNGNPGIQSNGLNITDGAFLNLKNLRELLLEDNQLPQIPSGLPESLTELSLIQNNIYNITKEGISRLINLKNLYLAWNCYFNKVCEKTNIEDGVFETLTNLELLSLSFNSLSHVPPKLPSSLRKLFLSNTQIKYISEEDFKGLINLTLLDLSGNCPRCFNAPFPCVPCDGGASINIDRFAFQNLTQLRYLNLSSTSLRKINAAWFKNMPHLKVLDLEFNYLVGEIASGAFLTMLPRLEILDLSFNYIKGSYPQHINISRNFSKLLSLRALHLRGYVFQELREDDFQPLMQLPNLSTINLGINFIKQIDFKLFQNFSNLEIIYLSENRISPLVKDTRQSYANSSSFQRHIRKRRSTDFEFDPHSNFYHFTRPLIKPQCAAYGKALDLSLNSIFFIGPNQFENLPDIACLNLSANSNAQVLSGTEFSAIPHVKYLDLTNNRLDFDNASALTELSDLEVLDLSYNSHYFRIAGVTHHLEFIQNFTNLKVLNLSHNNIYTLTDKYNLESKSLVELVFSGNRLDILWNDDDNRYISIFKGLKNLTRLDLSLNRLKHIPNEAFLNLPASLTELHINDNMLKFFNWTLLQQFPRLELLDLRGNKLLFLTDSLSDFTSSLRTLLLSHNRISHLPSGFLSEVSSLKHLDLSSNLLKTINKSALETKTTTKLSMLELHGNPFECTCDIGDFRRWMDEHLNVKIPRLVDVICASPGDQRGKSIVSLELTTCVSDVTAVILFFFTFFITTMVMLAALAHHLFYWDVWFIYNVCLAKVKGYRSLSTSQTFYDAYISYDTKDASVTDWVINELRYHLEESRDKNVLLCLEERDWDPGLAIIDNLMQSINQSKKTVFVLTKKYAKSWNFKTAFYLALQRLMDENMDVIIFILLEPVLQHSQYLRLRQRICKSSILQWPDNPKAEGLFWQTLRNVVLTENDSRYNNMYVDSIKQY
Test: SEAP reporter assay in HEK-Blue TLR8 cells, R848-induced TLR8 signaling
Format: cell-based
Conditions: 1(2H)-phthalazinone and quinoline derivatives in HEK-Blue hTLR8 cells
Protocol: SEAP reporter assay: HEK-Blue TLR8 cells were seeded in tissue culture treated 96-well plates with a density of 7.5×10^4 cells/well in DMEM media supplemented with 10% FBS (phosphatases deactivated with heat). […] Plates are then incubated in humidified incubators containing 5% CO2 at 37° C. for 24 h, after which, 30 μL of culture media was transfer to a new plate and 100 μL of Quanti-Blue (Invivogen) was added, the plate was then incubated at 37° C. till color change (30 min-1 h). Readout of absorbance at 620 nm was quantified using Beckman-Coulter DTX 880 Multimode Detector. […] SEAP assays for each sample were conducted with three biological replicates, each in triplicate.
To establish a robust high throughput assay for TLR8 inhibitors, the inventors first engineered a cell line stably overexpressing the human TLR8 whose activation can be reported by the Secreted Embryonic Alkaline Phosphatase (SEAP) assay. TLR8-overexpresing HEK-Blue cells were prepared by lentiviral infection of HEK-Blue Null1 cells that have null or low basal expression of endogenous TLR genes. […] The TLR8-mediated NF-κB activation can be assessed by measuring the SEAP activity.

For `CCOc1ccc(-c2nn(CC)c(=O)c3ccccc23)cc1C` [Compound 32, 4-(4-Ethoxyl-3-methylphenyl)-2-ethyl-1(2H)-phthalazinone], which IC50 is on record?
The IC50 was > 20000 nM.

Which IC50 does the source give for `O=c1c2ccccc2c(-c2ccccc2)nn1-c1ccccc1` [Compound 33, 2,4-Diphenyl-1(2H)-phthalazinone] here?
The IC50 was > 20000 nM.

Which IC50 does the source give for `Cc1cc(-c2n[nH]c(=O)c3cccc(C)c23)ccc1O` [Compound 34, 4-(4-Hydroxy-3-methylphenyl)-5-methyl-1(2H)-phthalazinone] here?
Its IC50 is > 20000 nM.

Which IC50 does the source give for `Cc1cc(-c2n[nH]c(=O)c3cccnc23)cc(C)c1O` [Compound 35] here?
The IC50 was 13000 ± 2140 nM.

`Cc1cc(-c2ncnc3ccccc23)ccc1O` [Compound 38, 4-(3-Methyl-4-Hydroxyphenyl)quinazoline] was tested. Which IC50 did it give?
The IC50 was 350 ± 120 nM.

With `Cc1cc(-c2cncc3ccccc23)ccc1O` [Compound 39, 4-Isoquinolin-4-yl-2-methylphenol] as the molecule, how does the IC50 read?
Its IC50 is 160 ± 20 nM.

Which IC50 does the source give for `Cc1cc(-c2nncc3ccccc23)cc(C)c1O` [Compound 40, 1-(3,5-Dimethyl-4-Hydroxyphenyl)-phthalazine] here?
Its IC50 is 11400 ± 360 nM.

Which IC50 does the source give for `Cc1cc(-c2nncc3ccccc23)ccc1O` [Compound 41, 1-(3-Methyl-4-Hydroxyphenyl)-phthalazine] here?
The IC50 was 6750 ± 1300 nM.

Which IC50 does the source give for `Cc1cc(-c2cccc3ccccc23)cc(C)c1O` [Compound 42, 1-(4-Hydroxy-3,5-dimethylphenyl)naphthalene] here?
Its IC50 is 1220 ± 100 nM.

`Cc1cc(-c2cccc3ccccc23)ccc1O` [Compound 43, 1-(4-Hydroxy-3-methylphenyl)naphthalene] was tested. Which IC50 did it give?
Its IC50 is > 20000 nM.

`Cc1cc(-c2cnnc3ccccc23)ccc1O` [Compound 45, 4-(4-Hydroxy-3-methylphenyl)-cinnolin] was tested. Which IC50 did it give?
The IC50 was 340 ± 20 nM.

How did the IC50 turn out when `Cc1cc(-c2cn(C(=O)OC(C)(C)C)c3ccccc23)ccc1O` [Compound 46, N-tert-butoxycarbonyl-3-(4-Hydroxy-3-methylphenyl)-indole] was run?
The IC50 was > 20000 nM.

For `Cc1cc(-c2c[nH]c3ccccc23)ccc1O` [Compound 47, 3-(4-Hydroxy-3-methylphenyl)-indole], which IC50 is on record?
The IC50 was 2800 ± 690 nM.

With `Cc1cc(-c2n[nH]c3ccccc23)ccc1O` [Compound 48, 3-(4-Hydroxy-3-methylphenyl)-1H-indazole] as the molecule, how does the IC50 read?
Its IC50 is > 20000 nM.

`Cc1cc(-c2ccnc3[nH]ccc23)ccc1O` [Compound 49, 4-(4-Hydroxyl-3-methylphenyl)-7-azaindole] was tested. Which IC50 did it give?
Its IC50 is 90 ± 30 nM.

`Cc1cc(-c2ccnc3cccnc23)ccc1O` [Compound 50, 4-(4-Hydroxyl-3-methylphenyl)-1,5-naphthyridine] was tested. Which IC50 did it give?
Its IC50 is 300 ± 70 nM.

Same assay, conditions: same column as E3, cell prints (nM); HEK-Blue hTLR8 cells

`Cc1cc(-c2ccnc3ccccc23)cc(C)c1O` [Compound 36, 4-(3,5-Dimethyl-4-Hydroxyphenyl)quinoline] was tested. Which IC50 did it give?
Its IC50 is 25.5 ± 10.7 nM.

For `Cc1cc(-c2ccnc3ccccc23)ccc1O` [Compound 37, 4-(3-Methyl-4-Hydroxyphenyl)quinoline], which IC50 is on record?
Its IC50 is 38.6 ± 5.75 nM.

Same assay, conditions: up to 20 μM

`O=C(O)c1cnn2c(-c3cccc(C(F)(F)F)c3)ccnc12` [Compound 4a] was tested. Which “inhibitory activity against TLR8 signaling” value did it give?
Its value is “did not show any inhibitory activity”.

System: TLR8-mediated TNF-α and IL-8 mRNA
Test: RT-PCR of TNF-α and IL-8 mRNA in R848 treated HEK-Blue TLR8 cells
Format: cell-based, human
Conditions: negative control, 10 μM
Source text: R848-induced TLR8 activation results in increased production of the proinflammatory cytokines, such as TNF-α, IL-6 and IL-8.

For `O=C(O)c1cnn2c(-c3cccc(C(F)(F)F)c3)ccnc12` [Compound 4a], which “inhibition of R848-induced TNF-α and IL-8 mRNA levels” value is on record?
The value was “negligible inhibition”.

System: TLR8-mediated TNF-α production in PBMC cells
Test: R848-induced TNF-α secretion in PBMCs
Format: cell-based, human
Conditions: 1 μg/mL R848; dose-dependent; 4a at 50 μM
Source text: Peripheral blood mononuclear cells (PBMCs) include lymphocytes (T cells, B cells, and NK cells), monocytes, and dendritic cells expressing various TLRs. TLR7 and TLR8 are both expressed on B cells and monocytes, while DC plasmacytoids (DCps) express only TLR7 and immature DCs (DC11c^+) express only TLR8.

Which “R848-induced TNF-α secretion of PBMCs” value does the source give for `O=C(O)c1cnn2c(-c3cccc(C(F)(F)F)c3)ccnc12` [Compound 4a] here?
The value was “not”.
